According to PubChem BioAssay (NCI):
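All cell lines were grown in 96-well plates and treated with compound for 48 hours. The concentration for full growth arrest is given as TGI.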

Assays:
Experiment in all cases: NCI tumour cell line growth inhibition, 48 h
[1] = test system: 786-0 renal
[2] = test system: KM12 colon
[3] = test system: MDA-MB-435
[4] = test system: NCI-H460 lung
[5] = test system: SK-MEL-5 melanoma
[6] = test system: T-47D breast
[7] = test system: SR leukemia

Structure (SMILES)	TGI [1] [µM]	TGI [2] [µM]	TGI [3] [µM]	TGI [4] [µM]	TGI [5] [µM]	TGI [6] [µM]	TGI [7] [µM]
CCOC(=O)c1nc2cc(C(F)(F)F)ccc2nc1Nc1ccc(F)cc1	> 100	> 100	> 100	> 100	> 100	> 100	–
C[C@]12CC[C@H](O)CC1=CC[C@@H]1[C@@H]2CC[C@]2(C)c3nc(Cl)ccc3C[C@@H]12	> 100	> 100	> 100	> 100	> 100	> 100	> 100
Cc1[nH]c(=O)nc2nc3ccc(Cl)cc3c(NC(C)(CO)CO)c12	> 100	> 100	> 100	> 100	> 100	> 100	> 100
NC(=O)C[C@H](NC(=O)C1(NC(=O)[C@H](Cc2ccc(CP(=O)(O)O)cc2)NC(=O)C(=O)O)CCCCC1)C(=O)NCCCc1cccc2ccccc12	> 10	> 10	> 10	> 10	> 10	> 10	7.86
CCOc1cc2c(cc1O)CC[C@@H]1[C@@H]2CC[C@]2(C)C(OS(=O)OC3CC[C@@H]4[C@H]5CCc6cc(O)c(OCC)cc6[C@@H]5CC[C@@]34C)CC[C@@H]12 (stereo partly drawn)	> 34.3	> 35.1	0.548	> 34.2	3.84	> 100	> 44
C=CCCC(On1c(-c2ccc(Cl)cc2)csc1=S)c1ccccc1 (stereo not drawn)	> 100	> 100	> 100	–	64.8	> 100	–
O=C(Cc1ccccc1)N=Nc1c(O)[nH]c2ccccc12	> 100	> 100	> 100	> 100	> 100	> 100	> 100
Cc1nc2c(Cl)cc(Cl)cc2c(Cl)c1CCCl	> 100	> 100	> 100	> 100	> 100	89.7	> 100
Cc1cc(C)c2c(=N)c3ccccc3n(CCCCCCn3c4ccccc4c(=N)c4c(C)cc(C)nc43)c2n1	0.816	0.973	3.3	–	3.39	3.65	–
CCCCC1(N=[N+]=[N-])C(=O)C2C=CC=C3c4ccccc4N(C1=O)C32 (stereo not drawn)	> 31.6	> 31.6	> 31.6	> 31.6	> 31.6	> 31.6	> 10
COc1cc(/C=C2\N=C(C)N(n3c(-c4ccccc4)nc4ccccc4c3=O)C2=O)cc(OC)c1OC	> 100	> 100	> 100	> 100	> 100	> 100	> 100
Cc1cc2c(cc1-c1cc3c(cc1C)C(C(C)C)=C(O)C(=O)/C3=C\Nc1c(C)n(C)n(-c3ccccc3)c1=O)/C(=C/Nc1c(C)n(C)n(-c3ccccc3)c1=O)C(=O)C(O)=C2C(C)C	> 100	> 100	> 100	> 100	> 100	> 100	> 100
CCCC(=O)Nc1cc(/C=C/C(=O)N2CC(CCl)c3c2cc([N+](=O)[O-])c2ccccc32)n(C)c1 (stereo not drawn)	> 100	> 82.6	> 100	> 100	> 100	> 100	> 100
CN1CCN(/C(N)=C(\C#N)C(=O)Nc2ccccc2)CC1	> 100	> 100	> 100	> 100	> 100	> 100	> 100
NC(=O)c1ncn2c(=O)n(CCl)nnc12	> 100	> 100	> 100	> 100	> 100	> 100	> 100
COC(=O)c1c(O)ccc2c1c1c(n2Cc2ccccn2)C(=O)c2ccccc2C1=O	> 100	> 100	> 100	> 100	> 100	> 100	64.2
N#CCSc1c(-c2ccccc2)c(=O)n(-c2ccccc2)c(=S)n1-c1ccccc1	> 100	> 100	> 100	> 100	> 100	> 100	> 100
COc1c(-c2cccs2)oc2c(CC(=O)O)cccc2c1=O	> 100	–	> 100	–	> 100	> 100	> 100
COc1cc(/C=c2/c3ccccc3n3c2cc(-c2ccccc2)[n+]3C)cc(OC)c1OC	16.4	3.67	6.19	17.1	6.73	19.3	–
Cc1oncc1NC1=CC(=O)C(=O)c2ccccc21	32.2	42.1	3.51	20.3	3.68	11.5	34.6
CC(C)=CCCC1(Sc2ccccc2)C(=O)OCC1C=C(C)C (stereo not drawn)	73.7	> 100	> 100	> 100	36.7	> 100	–
CCNc1cc2c3c(c1)CCCN3CCC2	26	29.9	11.2	29.8	28.2	67.9	27.4
CC(C)(C)c1cc(/C=C/C(=O)CC(=O)/C=C/c2cc(C(C)(C)C)c(O)c(C(C)(C)C)c2)cc(C(C)(C)C)c1O	> 50	> 50	> 50	> 50	> 50	–	–
CCCCCCCCCCCCCCCCCCOc1ccc(/C=C/C2=[N+](CCCl)CCO2)cc1	> 100	> 100	> 100	> 100	> 100	> 100	> 100
Clc1ccc2nc(CC3CCCC3)[nH]c2c1	33.4	38.8	25.9	46.9	24.9	72.5	26.5
COc1cc2c(cc1OC(=O)c1cc3ccccc3[nH]1)N=C[C@@H]1CCCN1C2=O	4.23	3.15	1.19	8.65	0.335	6.25	0.969
COP(=O)(OC)c1ccc(NCc2cc(O)ccc2O)cc1	58.1	38.4	74.1	45.4	47.2	70.1	> 83.4
